What was measured:
[1] = pKa of compound 1; assay type: physicochemical; conditions: weak base
From the text: (§1) Compound 1 is being evaluated in the clinic for the treatment of liver infection caused by hepatitis C virus. The estimated daily dose is 1 g-2 g requiring high drug loading in the drug product to provide the best treatment regimen for the patients. […] The high dose and need for an immediate release profile are further complicated by the low bulk density of the drug substance (0.04 to 0.3 g/cc). The conventional manufacturing technologies employing commonly used excipients require the use of multiple densification steps as well as high amounts of excipients such as binders. In addition to the multi-step manufacturing process, the high usage of binder has a negative impact on the dissolution of the product resulting in lower bioavailability.

[2] = pH solubility profile of compound 1 at room temperature (FIG. 1); assay type: physicochemical; conditions: pH>4, FIG. 1
From the text: as §1
FIG. 1 provides a graph illustrating the pH solubility profile of compound 1 at room temperature.

- pKa [1]: 3.5
- drug solubility vs pH [2]: drops precipitously
Structure (SMILES): CC(C)C(=O)OC[C@H]1O[C@@H](n2ccc(N)nc2=O)[C@](C)(F)[C@@H]1OC(=O)C(C)C [Compound 1, Isobutyric acid (2R,3R,4R,5R)-5-(4-amino-2-oxo-2H-pyrimidin-1-yl)-4-fluoro-2-isobutyryloxymethyl-4-methyl-tetrahydro-furan-3-yl ester]
